Test: xn = mol fraction of the nth substance listed
Conditions: 100 kPa

O=C1CCCCC1 + CCCC[n+]1ccn(C)c1C.F[B-](F)(F)F
x2 = 0
Conditions | speed of sound [m/s]
298.15 K | 1414.5
308.15 K | 1375.1

CCCC[n+]1ccn(C)c1C.F[B-](F)(F)F + O=C1CCCCC1
speed of sound [m/s]
Conditions | 293.15 K | 298.15 K | 303.15 K | 308.15 K
x1 = 0.0834 | 1450.2 | 1433.6 | 1413.1 | 1392
x1 = 0.1328 | 1459.4 | 1442.1 | 1421.5 | –
x1 = 0.1764 | 1467.2 | 1448.8 | 1427.9 | 1406.3
x1 = 0.2258 | 1472.4 | – | 1433.4 | 1412.3
x1 = 0.2675 | 1476.1 | 1458.1 | 1437.7 | 1417.1
x1 = 0.3094 | 1479.6 | – | 1441.5 | 1420.8
x1 = 0.3824 | 1486 | 1468.5 | – | 1428.9
x1 = 0.4368 | – | – | 1454.6 | 1434.8
x1 = 0.4755 | 1496 | 1478.6 | – | 1440.1
x1 = 0.5276 | 1503.2 | 1486.2 | 1467.5 | 1448.5
x1 = 0.5649 | 1509.3 | 1492.5 | 1474.1 | 1455.6
x1 = 0.6063 | 1517 | 1500.4 | 1482.5 | 1464.2
x1 = 0.6451 | 1525.2 | 1508.9 | – | 1473.4
x1 = 0.6947 | – | 1521.1 | 1504.3 | 1487.3
x1 = 0.7419 | 1550.5 | 1534.8 | 1518.7 | –
x1 = 0.7994 | – | 1553.9 | – | –
x1 = 0.8527 | 1589.2 | 1574.3 | 1559.8 | 1544.8
x1 = 0.9134 | 1615.7 | – | 1587.9 | –
x1 = 1 | 1659.7 | 1645.7 | 1632.5 | –

Source: a compilation of properties of binary mixtures (doi:10.1016/j.molliq.2017.02.011)
